Experiments:
Assay type in all cases: in vivo
[1] = system: Triticum aestivum (TRZAW, winter wheat); experiment: Pre-emergence herbicidal evaluation (crop); details: 3 weeks after treatment
From the text: (§1) The pre-emergence herbicidal activity of the compounds of the present invention is exemplified by the following test in which the seeds of a variety of monocotyledonous and dicotyledonous plants are seperately mixed with potting soil and planted on top of approximately one inch of soil in separate post. After planting, the pots are sprayed with the selected aqueous acetone solution. containing test compound in sufficient quantity to provide the equivalent of about 0.025 to 0.4 kg per hectare of test compound per pot. The treated pots are then placed on greenhouse benches, watered and cared for in accordance with conventional greenhouse procedures. From 3 weeks after treatment, the tests are terminated and each pot is examined and rated according to the rating system set forth below. [table] [table]

Zea mays (ZEAMX, maize) = experiment: Pre-emergence herbicidal evaluation (crop); details: 3 weeks after treatment
From the text: as §1

[2] = system: Glycine max (GLXMA, soyabeans); experiment: Pre-emergence herbicidal evaluation (crop); details: 3 weeks after treatment
From the text: as §1

[3] = system: Setaria viridis (SETVI, green foxtail); experiment: Pre-emergence herbicidal evaluation; details: 3 weeks after treatment
From the text: as §1

[4] = system: Echinochloa grus galli (ECHCG, barnyard grass); experiment: Pre-emergence herbicidal evaluation; details: 3 weeks after treatment
From the text: as §1

[5] = system: Matricaria inodora (MATIN, mayweed); experiment: Pre-emergence herbicidal evaluation; details: 3 weeks after treatment
From the text: as §1

[6] = system: Galium aparine (GALAP, cleaver); experiment: Pre-emergence herbicidal evaluation; details: 3 weeks after treatment
From the text: as §1

[7] = system: Alopecurus myosuroides (ALOMY, black grass); experiment: Pre-emergence herbicidal evaluation; details: 3 weeks after treatment
From the text: as §1

[8] = system: Abutilon theophrasti (ABUTH, velvetleaf); experiment: Pre-emergence herbicidal evaluation; details: 3 weeks after treatment
From the text: as §1

[9] = system: Ipomoea hederacea (IPOHE, morning glory); experiment: Pre-emergence herbicidal evaluation; details: 3 weeks after treatment
From the text: as §1

[10] = system: Stellaria media (STEME, chickweed); experiment: Pre-emergence herbicidal evaluation; details: 3 weeks after treatment
From the text: as §1

[11] = system: Setaria viridis (SETVI, green foxtail); experiment: Post-emergence herbicidal evaluation; details: 3 weeks after treatment
Description: (§2) These acetone solutions are diluted with water and the resulting formulations applied at dosage levels equivalent of about 0.025 to 0.4 kg per hectare of test compound per pot. After spraying the plants are placed on greenhouse benches and are cared for in the usual manner, commensurate with conventional greenhouse practices. From 3 weeks after treatment, the seedling plants are examined and rated according to the rating system provided above. A rating 0 indicates growth as untreated control, a rating 9 indicates death.

[12] = system: Echinochloa grus galli (ECHCG, barnyard grass); experiment: Post-emergence herbicidal evaluation; details: 3 weeks after treatment
Description: as §2

[13] = system: Matricaria inodora (MATIN, mayweed); experiment: Post-emergence herbicidal evaluation; details: 3 weeks after treatment
Description: as §2

[14] = system: Galium aparine (GALAP, cleaver); experiment: Post-emergence herbicidal evaluation; details: 3 weeks after treatment
Description: as §2

[15] = system: Alopecurus myosuroides (ALOMY, black grass); experiment: Post-emergence herbicidal evaluation; details: 3 weeks after treatment
Description: as §2

[16] = system: Abutilon theophrasti (ABUTH, velvetleaf); experiment: Post-emergence herbicidal evaluation; details: 3 weeks after treatment
Description: as §2

[17] = system: Dolium multiflorum (LOLMU, ryegrass); experiment: Post-emergence herbicidal evaluation; details: rate 0.100 kg/ha, 3 weeks after treatment
Description: as §2

[18] = system: Ipomoea hederacea (IPOHE, morning glory); experiment: Post-emergence herbicidal evaluation; details: 3 weeks after treatment
Description: as §2

[19] = system: Stellaria media (STEME, chickweed); experiment: Post-emergence herbicidal evaluation; details: 3 weeks after treatment
Description: as §2

Cc1cc(OCC=C(Cl)SC(F)(F)F)nc(Oc2cc(C(F)(F)F)nn2C)c1 [Example 5]
TRZAW rating ([1]; rate 0.025 kg/ha): 2 (2 - Slight effect)
TRZAW rating ([1]; rate 0.100 kg/ha): 3 (3 - Moderate effect)
TRZAW rating ([1]; rate 0.400 kg/ha): 6 (6 - Herbicidal effect)
ZEAMX rating (Zea mays (ZEAMX, maize); rate 0.025 kg/ha): 2 (2 - Slight effect)
ZEAMX rating (Zea mays (ZEAMX, maize); rate 0.100 kg/ha): 3 (3 - Moderate effect)
ZEAMX rating (Zea mays (ZEAMX, maize); rate 0.400 kg/ha): 4 (4 - Injury)
GLXMA rating ([2]; rate 0.025 kg/ha): 2 (2 - Slight effect)
GLXMA rating ([2]; rate 0.100 kg/ha): 2 (2 - Slight effect)
GLXMA rating ([2]; rate 0.400 kg/ha): 3 (3 - Moderate effect)
SETVI rating ([3]; rate 0.025 kg/ha): 8 (8 - Approaching complete kill)
SETVI rating ([3]; rate 0.100 kg/ha): 9 (9 - Complete kill)
SETVI rating ([3]; rate 0.400 kg/ha): 9 (9 - Complete kill)
ECHCG rating ([4]; rate 0.025 kg/ha): 6 (6 - Herbicidal effect)
ECHCG rating ([4]; rate 0.100 kg/ha): 8 (8 - Approaching complete kill)
ECHCG rating ([4]; rate 0.400 kg/ha): 9 (9 - Complete kill)
MATIN rating ([5]; rate 0.025 kg/ha): 8 (8 - Approaching complete kill)
MATIN rating ([5]; rate 0.100 kg/ha): 8 (8 - Approaching complete kill)
MATIN rating ([5]; rate 0.400 kg/ha): 9 (9 - Complete kill)
GALAP rating ([6]; rate 0.025 kg/ha): 5 (5 - Definite injury)
GALAP rating ([6]; rate 0.100 kg/ha): 7 (7 - Good herbicidal effect)
GALAP rating ([6]; rate 0.400 kg/ha): 7 (7 - Good herbicidal effect)
ALOMY rating ([7]; rate 0.025 kg/ha): 7 (7 - Good herbicidal effect)
ALOMY rating ([7]; rate 0.100 kg/ha): 8 (8 - Approaching complete kill)
ALOMY rating ([7]; rate 0.400 kg/ha): 8 (8 - Approaching complete kill)
ABUTH rating ([8]; rate 0.025 kg/ha): 5 (5 - Definite injury)
ABUTH rating ([8]; rate 0.100 kg/ha): 8 (8 - Approaching complete kill)
ABUTH rating ([8]; rate 0.400 kg/ha): 8 (8 - Approaching complete kill)
IPOHE rating ([9]; rate 0.025 kg/ha): 8 (8 - Approaching complete kill)
IPOHE rating ([9]; rate 0.100 kg/ha): 9 (9 - Complete kill)
IPOHE rating ([9]; rate 0.400 kg/ha): 9 (9 - Complete kill)
STEME rating ([10]; rate 0.025 kg/ha): 9 (9 - Complete kill)
STEME rating ([10]; rate 0.100 kg/ha): 9 (9 - Complete kill)
STEME rating ([10]; rate 0.400 kg/ha): 9 (9 - Complete kill)
SETVI rating ([11]; rate 0.025 kg/ha): 9 (9 - Complete kill)
SETVI rating ([11]; rate 0.100 kg/ha): 9 (9 - Complete kill)
SETVI rating ([11]; rate 0.400 kg/ha): 9 (9 - Complete kill)
ECHCG rating ([12]; rate 0.025 kg/ha): 7 (7 - Good herbicidal effect)
ECHCG rating ([12]; rate 0.100 kg/ha): 8 (8 - Approaching complete kill)
ECHCG rating ([12]; rate 0.400 kg/ha): 8 (8 - Approaching complete kill)
MATIN rating ([13]; rate 0.025 kg/ha): 6 (6 - Herbicidal effect)
MATIN rating ([13]; rate 0.100 kg/ha): 7 (7 - Good herbicidal effect)
MATIN rating ([13]; rate 0.400 kg/ha): 7 (7 - Good herbicidal effect)
GALAP rating ([14]; rate 0.025 kg/ha): 7 (7 - Good herbicidal effect)
GALAP rating ([14]; rate 0.100 kg/ha): 8 (8 - Approaching complete kill)
GALAP rating ([14]; rate 0.400 kg/ha): 8 (8 - Approaching complete kill)
ALOMY rating ([15]; rate 0.025 kg/ha): 6 (6 - Herbicidal effect)
ALOMY rating ([15]; rate 0.100 kg/ha): 7 (7 - Good herbicidal effect)
ALOMY rating ([15]; rate 0.400 kg/ha): 8 (8 - Approaching complete kill)
ABUTH rating ([16]; rate 0.025 kg/ha): 7 (7 - Good herbicidal effect)
ABUTH rating ([16]; rate 0.100 kg/ha): 8 (8 - Approaching complete kill)
ABUTH rating ([16]; rate 0.400 kg/ha): 8 (8 - Approaching complete kill)
LOLMU rating [17]: 8 (8 - Approaching complete kill)
IPOHE rating ([18]; rate 0.025 kg/ha): 9 (9 - Complete kill)
IPOHE rating ([18]; rate 0.100 kg/ha): 9 (9 - Complete kill)
IPOHE rating ([18]; rate 0.400 kg/ha): 9 (9 - Complete kill)
STEME rating ([19]; rate 0.025 kg/ha): 4 (4 - Injury)
STEME rating ([19]; rate 0.100 kg/ha): 5 (5 - Definite injury)
STEME rating ([19]; rate 0.400 kg/ha): 7 (7 - Good herbicidal effect)

Cc1cc(OCCC(Cl)SC(F)(F)F)nc(Oc2cc(C(F)(F)F)nn2C)c1 (centres unmarked) [Example 3, 2-(1-Methyl-3-trifluoromethylpyrazol-5-yloxy)-4-methyl-6-(3-chloro-3-trifluoromethylthiopropyloxy)pyridine]
TRZAW rating ([1]; rate 0.025 kg/ha): 1 (1 - Trace effect)
TRZAW rating ([1]; rate 0.100 kg/ha): 2 (2 - Slight effect)
TRZAW rating ([1]; rate 0.400 kg/ha): 3 (3 - Moderate effect)
ZEAMX rating (Zea mays (ZEAMX, maize); rate 0.025 kg/ha): 2 (2 - Slight effect)
ZEAMX rating (Zea mays (ZEAMX, maize); rate 0.100 kg/ha): 2 (2 - Slight effect)
ZEAMX rating (Zea mays (ZEAMX, maize); rate 0.400 kg/ha): 3 (3 - Moderate effect)
GLXMA rating ([2]; rate 0.025 kg/ha): 1 (1 - Trace effect)
GLXMA rating ([2]; rate 0.100 kg/ha): 1 (1 - Trace effect)
GLXMA rating ([2]; rate 0.400 kg/ha): 2 (2 - Slight effect)
SETVI rating ([3]; rate 0.025 kg/ha): 8 (8 - Approaching complete kill)
SETVI rating ([3]; rate 0.100 kg/ha): 9 (9 - Complete kill)
SETVI rating ([3]; rate 0.400 kg/ha): 9 (9 - Complete kill)
ECHCG rating ([4]; rate 0.025 kg/ha): 4 (4 - Injury)
ECHCG rating ([4]; rate 0.100 kg/ha): 6 (6 - Herbicidal effect)
ECHCG rating ([4]; rate 0.400 kg/ha): 8 (8 - Approaching complete kill)
MATIN rating ([5]; rate 0.025 kg/ha): 8 (8 - Approaching complete kill)
MATIN rating ([5]; rate 0.100 kg/ha): 9 (9 - Complete kill)
MATIN rating ([5]; rate 0.400 kg/ha): 9 (9 - Complete kill)
GALAP rating ([6]; rate 0.025 kg/ha): 2 (2 - Slight effect)
GALAP rating ([6]; rate 0.100 kg/ha): 7 (7 - Good herbicidal effect)
GALAP rating ([6]; rate 0.400 kg/ha): 7 (7 - Good herbicidal effect)
ALOMY rating ([7]; rate 0.025 kg/ha): 5 (5 - Definite injury)
ALOMY rating ([7]; rate 0.100 kg/ha): 8 (8 - Approaching complete kill)
ALOMY rating ([7]; rate 0.400 kg/ha): 8 (8 - Approaching complete kill)
ABUTH rating ([8]; rate 0.025 kg/ha): 5 (5 - Definite injury)
ABUTH rating ([8]; rate 0.100 kg/ha): 5 (5 - Definite injury)
ABUTH rating ([8]; rate 0.400 kg/ha): 7 (7 - Good herbicidal effect)
IPOHE rating ([9]; rate 0.025 kg/ha): 7 (7 - Good herbicidal effect)
IPOHE rating ([9]; rate 0.100 kg/ha): 9 (9 - Complete kill)
IPOHE rating ([9]; rate 0.400 kg/ha): 9 (9 - Complete kill)
STEME rating ([10]; rate 0.025 kg/ha): 9 (9 - Complete kill)
STEME rating ([10]; rate 0.100 kg/ha): 9 (9 - Complete kill)
STEME rating ([10]; rate 0.400 kg/ha): 9 (9 - Complete kill)
SETVI rating ([11]; rate 0.025 kg/ha): 8 (8 - Approaching complete kill)
SETVI rating ([11]; rate 0.100 kg/ha): 9 (9 - Complete kill)
SETVI rating ([11]; rate 0.400 kg/ha): 9 (9 - Complete kill)
ECHCG rating ([12]; rate 0.025 kg/ha): 6 (6 - Herbicidal effect)
ECHCG rating ([12]; rate 0.100 kg/ha): 8 (8 - Approaching complete kill)
ECHCG rating ([12]; rate 0.400 kg/ha): 9 (9 - Complete kill)
MATIN rating ([13]; rate 0.025 kg/ha): 5 (5 - Definite injury)
MATIN rating ([13]; rate 0.100 kg/ha): 6 (6 - Herbicidal effect)
MATIN rating ([13]; rate 0.400 kg/ha): 7 (7 - Good herbicidal effect)
GALAP rating ([14]; rate 0.025 kg/ha): 8 (8 - Approaching complete kill)
GALAP rating ([14]; rate 0.100 kg/ha): 8 (8 - Approaching complete kill)
GALAP rating ([14]; rate 0.400 kg/ha): 8 (8 - Approaching complete kill)
ALOMY rating ([15]; rate 0.025 kg/ha): 5 (5 - Definite injury)
ALOMY rating ([15]; rate 0.100 kg/ha): 7 (7 - Good herbicidal effect)
ALOMY rating ([15]; rate 0.400 kg/ha): 7 (7 - Good herbicidal effect)
ABUTH rating ([16]; rate 0.025 kg/ha): 5 (5 - Definite injury)
ABUTH rating ([16]; rate 0.100 kg/ha): 7 (7 - Good herbicidal effect)
ABUTH rating ([16]; rate 0.400 kg/ha): 7 (7 - Good herbicidal effect)
LOLMU rating [17]: 8 (8 - Approaching complete kill)
IPOHE rating ([18]; rate 0.025 kg/ha): 9 (9 - Complete kill)
IPOHE rating ([18]; rate 0.100 kg/ha): 9 (9 - Complete kill)
IPOHE rating ([18]; rate 0.400 kg/ha): 9 (9 - Complete kill)
STEME rating ([19]; rate 0.025 kg/ha): 4 (4 - Injury)
STEME rating ([19]; rate 0.100 kg/ha): 5 (5 - Definite injury)
STEME rating ([19]; rate 0.400 kg/ha): 6 (6 - Herbicidal effect)
